# Results published in US20220402917A1, “COMPOUND AS SMALL MOLECULE INHIBITOR PD-1/PD-L1 AND APPLICATION THEREOF” (MEDSHINE DISCOVERY INC., priority 2019, published 2022).
# Assays:
# [1] = molecular target: T1, PD-L1 in MDA-MR-231 cells (Homo sapiens, UniProt Q9NZQ7); experiment: Effect on expression level of PD-L1 in MDA-MR-231 cells (FACS); format: cell-based; conditions: 24 hours incubation, FACS detection of cell surface PD-L1
# T1 construct: endogenous in cells; host or cells: MDA-MB-231
# How it was run: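 MDA-MB-231 cells (1×10^5/well) were incubated 24 h at 37 °C with 5-fold serially diluted compounds. Cells were detached with 10 mM EDTA, then stained with anti-human PD-L1 and LIVE/DEAD dye (4 °C, 30 min) and fixed. Surface PD-L1 was measured by flow cytometry.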
# PD1/PD-L1 = PD1/PD-L1 (Homo sapiens, UniProt Q9NZQ7); experiment: NFAT activity test (TCR Activitor/PD-L1 CHO cells with PD-1/NFAT Reporter-Jurkat cells); format: cell-based; parameters: host or cells: TCR Activitor/PD-L1 CHO cells; PD-1/NFAT Reporter-Jurkat cells; conditions: TCR Activitor/PD-L1 CHO cells + PD-1/NFAT Reporter-Jurkat cells, 5 hours, luciferase
# PD1/PD-L1, sequence (Q9NZQ7 19-290): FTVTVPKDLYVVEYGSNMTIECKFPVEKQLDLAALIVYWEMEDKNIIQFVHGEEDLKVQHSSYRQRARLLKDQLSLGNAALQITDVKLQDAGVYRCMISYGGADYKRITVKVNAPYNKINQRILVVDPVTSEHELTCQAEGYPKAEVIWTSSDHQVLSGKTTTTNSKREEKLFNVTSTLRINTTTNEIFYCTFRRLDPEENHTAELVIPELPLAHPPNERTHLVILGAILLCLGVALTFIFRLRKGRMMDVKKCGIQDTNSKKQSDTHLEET
# How it was run: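 TCR activator/PD-L1 CHO cells were pretreated 30 min at 37 °C with compound (20 μM to 0.25 nM, 5-fold steps, 2% DMSO). PD-1/NFAT reporter Jurkat cells were then added for 5 h at 37 °C. NFAT-driven luciferase read by Bright-Glo luminescence, normalised to Min/Max, IC50 from 4-parameter fit.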
# T1 sequence (Q9NZQ7 19-290): as above
structure (smiles),measurement,setting,value
COc1nc(-c2cccc(-c3cccc(NC(=O)c4cc(C)c5c(n4)CN(CCO)CC5)c3Cl)c2Cl)cnc1CN1CC(O)C1 [Compound 21],IC50,[1],5.73 nM
same,Maximum effect (induction fold),PD1/PD-L1,3.96 induction fold
same,IC50,"PD1/PD-L1; read-out: IC50, inhibitory activity on PD1/PD-L1 binding (NFAT activity test)",13.9 nM
